# Data from patent US6214805A, “RNase L activators and antisense oligonucleotides effective to treat RSV infections” (priority 1997, dated 2001).
# Columns and labels:
# [1] = tested on: RSV strain A2; assay: Virus yield reduction in MA-104 cells; format: cell-based, Respiratory syncytial virus; details: RSV yield reduced by 90%, MOI = 0.005, added twice daily for 4 d
# From the text: (§1) A comparison of the efficacies of spA4 -antiRSV3'3'T/(8281-8299) treatment and conventional ribarvirin treatment can be obtained by determining the RSV-inhibitory concentration and the cytotoxic concentration of each compound. Cultures of the human laryngeal carcinoma cell line HEp-2 and the […] renal cell line MA-104 were established and infected with an MOI=0.005. Cultures were fed twice daily. Treatment with either ribavirin or spA4 -antiRSV3'3'T/(8281-8299) was begun simultaneously with infection and continued for four days. Treatment was then withdrawn and the test read on day 5. The effects of treatment on RSV infection were reported as 1) an EC50, the concentration at which there was a 50% reduction in the observable cytopathic effects of infection and 2) an EC90, the concentration at which there was a 90% reduction in viral production. […] Therapeutic efficacy is estimated by the Selectivity Index, which is the ratio of IC50 /EC50.
# (§2) as determined with RSV strain A2, MOI = 0.005
# (§3) Fresh medium and oligo or ribavirin added twice daily for 4 d and test read
# EC90 effective concentration to reduce RSV yield by 90%.
# [2] = tested on: Hep-2 Cells; assay: Cytotoxicity to Hep-2 cells (visual and dye uptake, rapidly dividing cells); format: cell-based, human
# From the text: as §1
# (§4) IC50 50% inhibitory concentration for cytotoxicity to cells (visual
# [3] = tested on: RSV strain A2; assay: Inhibition of RSV replication in RSV-infected 9HTE cells, virus plaque assay on CV-1 cells at 36 h post-infection; format: cell-based, Respiratory syncytial virus; details: for % Inhibition of RSV replication: 9HTE cells, M.O.I. 2.0, 36 hrs post-infection
# From the text: To develop 2-5A antisense chimeras with the potential to block RSV replication, an oligonucleotide binding site in the viral RNA polymerase (RSV L) mRNA, which encodes a low abundance message that is absolutely required for RSV replication was selected. The first chimera synthesized and evaluated was pA4 -antiRSV/(8490-8509). The binding sites for the chimeric oligonucleotide's antisense domain are to the transcripts of nucleotides 8490-8509 in the RSV genome, which spans the translation start codon for the L protein, and to nucleotides 8490-8509 of the antigenomic strand (the template for reproduction of the genome). Since to function as an effective treatment, a candidate agent must be able to inhibit viral replication subsequent to diagnosis, the anti-RSV effect of the 2-5A antisense chimera was determined on human tracheal epithelial cells, 9HTE, with treatments beginning either 4 h before RSV infection (pre-/post-infection treatments) or 2 h following infection (post-infection treatments). In the post-infection treatments, pA4 -antiRSV/([…]), was added at t+2, t+14 and t+26, (numbers represent time in h relative to time of infection, 0) For pre-infection treatment, pA4 -antiRSV/(8490-8509) (10 μM final concentration), was added at t-4, and t0 in addition to […]; t+14 and t+26. Virus harvested from control and oligonucleotide-treated 9HTE cells was measured by infecting CV-1 cells and subsequently counting viral plaques. […] On the basis of these experiments, all subsequent experiments were performed with post-infectiontreatments only. Additionally, these experiments indicate the potential use of these compounds as a treatment for active infection as compared to a prophylactic measure.
# The human tracheal epithelial cell line, 9HTE, (Gruenert et al., 1988) and CV-1 cells, (American Type Culture Collection, Rockville, Md., CCI#70) a green monkey kidney cell line which is highly permissive to RSV infection, were cultured in minimal essential medium (MEM) supplemented with 10% (v/v) fetal bovine serum (FBS), 2 mM L-glutamine, 1× MEM amino acids solution, 1× MEM non-essential amino acids solution, 100 U/ml penicillin, 100 μg/ml streptomycin and 0.25 μg/ml amphotericin B ("culture medium") (all reagents from Gibco BRL, Bethesda, Md.). RSV strain A2 (ATCC No. VR1302) was propagated in CV-1 cells. CV-1 monolayers were infected at a multiplicity of infection (M.O.I.) of 0.2 and cultured 46 h in MEM, 2% FBS, 1× Penicillin/Streptomycin (PS) in 5% CO2, 95% O2 at 37° C. Cells were then washed 2 times in MEM and subsequently covered in MEM, 2% FBS, 1× PS, 50 mM HEPES (pH7.5), 100 mM Mg(SO4). After 2 h at 37° C., cells were scraped and sonicated as previously described (Panuska et al., 1995). Aliquots (1 ml each) of cell sonicates were flash frozen in ethanol/dry ice within 20 min of scraping. Several aliquots were then thawed and titered by a plaque assay on CV-1 cells as previously described (Cirino et al., 1993). The range of virus yield from this procedure was 2 to 7×10^6 plaque forming units (pfu) per ml.
# Infection of 9HTE cells was performed as previously described (Merolla et al., 1994). Briefly, confluent monolayers were exposed to RSV diluted in MEM, 2% FBS, for 2 h at 37° C. in 5% CO2, 95% O2. After exposure, cells were washed two times with serum-free MEM media and then fresh culture media (with 10% FBS) was added. Oligonucleotides were either added 4 h prior to infection (t-4) or immediately after infection (t+2) and also at t+14 and t+26. Cells were harvested for plaque assays at 36 h post-infection to determine viral titers as previously described (Cirino et al., 1993). Cells were washed twice to remove any residual antisense and were then scraped in MEM containing 2% FBS, 1× PS. 9HTE cells were sonicated for 20 sec on ice then the extracts were serially diluted and transferred to a confluent monolayer of CV-1 for quantitation of infectious viral particles. […]
# [4] = tested on: RSV M2 RNA; assay: RT-PCR of M2 RNA from RSV-infected 9HTE cells; format: cell-based, Respiratory syncytial virus; details: RNA at 8 h post-infection, M.O.I.=10
# Description: To determine if RSV RNA levels correlated with antiviral activity, RT-PCR analysis was performed on RNA isolated from RSV-infected and uninfected 9HTE cells with and without treatment with spA4 -antiRSV3'3'T/(8281-8299) or spA4 -antiRSV3'3'A/(8530-8547). An M2 RNA sequence in RSV (from nucleotides 7879 to 8465) was converted to cDNA and amplified by PCR. M2 RNA from the RSV-infected cells produced an RT-PCR DNA product that was clearly visible. […] Levels of GAPDH transcripts were similar in all of these RNA preparations.
# RNA was collected from 2×10^5 9HTE cells at 8 h post-infection (M.O.I.=10) by RNAzol treatment as described by the manufacturer (Tel-Test, Inc, Freindswood, Tex.). RNA was isolated after 8 h to limit RSV replication to a single cycle. Isolated RNA (≈1 μg) was incubated with 100 pmoles of the appropriate downstream (-) primer listed below or 100 pmoles of random hexamer (used for glyceraldehyde-3-phosphatedehydrogenase, GAPDH, mRNA only). RNA and primers were heated to 70° C. for 10 min then cooled rapidly on ice for 5 min. […]
# 25 μl Hot-Start upper buffer contained 5 U Taq DNA polymerase (GibcoBRL) and 1/10th of the cDNA from the RT reaction. […] Aliquots of the RT/PCR mixtures were analyzed on 1% agarose/TBE gels.
# [5] = tested on: MA-104 Cells; assay: Cytotoxicity to MA-104 cells (visual and dye uptake, rapidly dividing cells); format: cell-based, murine
# From the text: as §1, §4
# [6] = tested on: RSV strain A2; assay: Antiviral activity in Hep-2 cells, neutral red (reduction of RSV-induced CPE); format: cell-based, Respiratory syncytial virus; details: neutral red, MOI = 0.005, added twice daily for 4 d, read on d 5
# From the text: as §1
# determined with RSV strain A2, MOI = 0.005
# as §3
# (§5) EC50 effective concentration to reduce RSV-induced CPE by 50%.
# [7] = tested on: RSV strain A2; assay: Antiviral activity in MA-104 cells, visual CPE; format: cell-based, Respiratory syncytial virus; details: visual CPE, MOI = 0.005, added twice daily for 4 d, read on d 5
# From the text: as §1, §2, §3, §5
substance,measurement,setting,value
spA2'p(A2'p)3 -[(Bu)p]2 -(5'atg gtt att tgg gtt gtt3'-3't5') [spA4-antiRSV3'-3'T/(8281-8299)],EC90,[1],20 nM
same,IC50,[2],> 10000 nM
same,% Inhibition of RSV replication,"[3]; 3.3 μM oligonucleotide/treatment at t+2, t+14, t+26 h",91.3%
same,% Inhibition of RSV replication,"[3]; 6.6 μM oligonucleotide/treatment at t+2, t+14, t+26 h",97%
same,% Inhibition of RSV replication,"[3]; 9.9 μM oligonucleotide/treatment at t+2, t+14, t+26 h",99.6%
same,comparison of anti-RSV activities (FIG. 3),[3]; spA4-linked versus spA2-linked oligonucleotide,greater potency
same,M2 RNA RT-PCR product,[4],no M2 RNA detected
same,IC50,[5],> 10000 nM
same,EC50,[6],300 nM
same,EC50,[7],20 nM
